Test results taken from ChEMBL document CHEMBL5154903 (J Med Chem, 2022).
Activity calls are given as the source filed them. No cut-off for these calls is given here.

Experiments:
[1] = Clearance in overnight fasted Sprague-Dawley rat at 5 mg/kg, iv measured upto 24 hrs; assay type: ADME, organism-based; details: in vivo
[2] = target: T1, Thyroid hormone receptor beta (Homo sapiens, UniProt P10828); test: Agonist activity at human TR beta LBD (202 to 461 residues) expressed in Escherichia coli BL21 (DE3) cells assessed as induction of N-terminal biotinylated coactivator SRC2-3 peptide recruitment by alphascreen assay
T1 sequence (P10828 whole entry): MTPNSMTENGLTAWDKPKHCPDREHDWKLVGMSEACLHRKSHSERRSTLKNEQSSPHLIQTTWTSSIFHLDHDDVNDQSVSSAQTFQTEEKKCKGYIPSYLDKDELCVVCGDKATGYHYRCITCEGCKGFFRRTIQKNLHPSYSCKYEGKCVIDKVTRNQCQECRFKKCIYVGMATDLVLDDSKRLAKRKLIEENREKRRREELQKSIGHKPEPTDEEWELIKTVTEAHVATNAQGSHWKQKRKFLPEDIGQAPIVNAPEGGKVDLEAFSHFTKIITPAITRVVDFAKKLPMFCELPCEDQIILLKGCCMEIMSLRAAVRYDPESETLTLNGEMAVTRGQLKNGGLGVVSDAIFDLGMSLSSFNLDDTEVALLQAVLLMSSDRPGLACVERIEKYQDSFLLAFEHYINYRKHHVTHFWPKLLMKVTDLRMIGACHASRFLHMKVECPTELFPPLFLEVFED

[3] = test system: HepG2; test: Inhibition of lipid metabolism in human HepG2 cells assessed as increase in p-ACC/ACC ratio at 10 uM incubated for 24 hrs by Western blot analysis; assay type: functional, cell-based
[4] = test system: HepG2; test: Inhibition of lipid metabolism in human HepG2 assessed as reduction in intracellular tryglyceride level at 1 to 10 uM incubated for 24 hrs; assay type: functional, cell-based; details: dose 1-10 µM
[5] = test system: Hepatocyte; test: Inhibition of lipid metabolism in mouse primary hepatocytes assessed as reduction in intracellular tryglyceride level at 10 uM incubated for 24 hrs; assay type: functional, cell-based
[6] = test system: CWR22R; test: Cytotoxicity against human 22Rv1 cells assessed as reduction in cell viability at 10 uM incubated for 72 to 96 hrs by Celltiter-Glo assay; assay type: toxicity, cell-based; details: time 72-96 hrs
[7] = Microsomal stability in rat liver microsomes assessed as intrinsic clearance at 1 uM incubated for 60 mins by HPLC-MS/MS analysis; assay type: ADME, Microsome; details: read-out: CLH
[8] = target: CYP1A2 (Homo sapiens, UniProt P05177); test: Inhibition of CYP1A2 in human liver microsomes at 10 uM incubated for 10 mins by LC-MS/MS analysis relative to control; assay type: ADME, Microsome
[9] = Volume of distribution at steady state in overnight fasted Sprague-Dawley rat at 5 mg/kg, iv measured upto 24 hrs; assay type: ADME, organism-based; details: in vivo, read-out: Vdss
[10] = Microsomal stability in rat liver microsomes assessed as half life at 1 uM incubated for 60 mins by HPLC-MS/MS analysis; assay type: ADME, Microsome
[11] = Cmax in overnight fasted Sprague-Dawley rat at 5 mg/kg, po measured upto 24 hrs; assay type: ADME, organism-based; parameters: time < 24 hrs, dose 5 mg/kg, route po; details: in vivo
[12] = Microsomal stability in human liver microsomes assessed as half life at 1 uM incubated for 60 mins by HPLC-MS/MS analysis; assay type: ADME, Microsome
[13] = Oral bioavailability in overnight fasted Sprague-Dawley rat at 5 mg/kg measured upto 24 hrs; assay type: ADME, organism-based; details: in vivo
[14] = AUC (0 to infinity) in overnight fasted Sprague-Dawley rat at 5 mg/kg, po measured upto 24 hrs; assay type: ADME, organism-based; parameters: dose 5 mg/kg, time < 24 hrs, route po; details: in vivo
[15] = target: T2, hERG (Homo sapiens, UniProt Q12809); test: Inhibition of hERG expressed in HEK293 cells at 10 uM by patch-clamp assay relative to control; assay type: toxicity, cell-based; details: HEK293 cells expressing hERG
[16] = target: T2, hERG; test: Inhibition of hERG expressed in HEK293 cells at 1 uM by patch-clamp assay relative to control; assay type: toxicity, cell-based; details: HEK293 cells expressing hERG
[17] = target: Egl nine homolog 1 (Homo sapiens, UniProt Q9GZT9); test: Inhibition of PHD2 (unknown origin) at 5 uM incubated for 15 mins by competitive fluorescence polarization assay relative to control
[18] = test system: HepG2; test: Inhibition of lipid metabolism in human HepG2 cells assessed as reduction in total lipid accumulation at 10 uM incubated for 24 hrs by oil red O staining based inverted microscopic analysis; assay type: functional, cell-based
[19] = Half life in overnight fasted Sprague-Dawley rat at 5 mg/kg, iv measured upto 24 hrs; assay type: ADME, organism-based; details: in vivo
[20] = Agonist activity at human TRbeta H435 mutant expressed in Escherichia coli BL21 (DE3) cells by alphascreen assay
[21] = test system: HFL1; test: Cytotoxicity against human HFL1 cells assessed as reduction in cell viability at 10 uM incubated for 72 to 96 hrs by Celltiter-Glo assay; assay type: toxicity, cell-based; details: hfl1, 10 µM, time 72-96 hrs
[22] = test system: BXPC-3; test: Cytotoxicity against human BXPC-3 cells assessed as reduction in cell viability at 10 uM incubated for 72 to 96 hrs by Celltiter-Glo assay; assay type: toxicity, cell-based; details: bxpc-3, 10 µM, time 72-96 hrs
[23] = Tmax in overnight fasted Sprague-Dawley rat at 5 mg/kg, iv measured upto 24 hrs; assay type: ADME, organism-based; details: in vivo
[24] = target: CYP2C9 (Homo sapiens, UniProt P11712); test: Inhibition of CYP2C9 in human liver microsomes at 10 uM incubated for 10 mins by LC-MS/MS analysis relative to control; assay type: ADME, Microsome
[25] = test system: HepG2; test: Inhibition of lipid metabolism in human HepG2 cells assessed as increase in CPT1 levels at 10 uM incubated for 24 hrs by Western blot analysis; assay type: functional, cell-based
[26] = test system: HepG2; test: Inhibition of lipid metabolism in human HepG2 assessed as reduction in intracellular total cholesterol level at 1 to 10 uM incubated for 24 hrs; assay type: functional, cell-based; details: dose 1-10 µM
[27] = test system: HepG2; test: Induction of mitochondrial basal respiration in human HepG2 cells assessed as increase in oxygen consumption rate at 10 uM measured after 24 hrs by Seahorse XFe96 flux analyzer; assay type: functional, cell-based
[28] = Microsomal stability in human liver microsomes assessed as intrinsic clearance at 1 uM incubated for 60 mins by HPLC-MS/MS analysis; assay type: ADME, Microsome; details: read-out: CLH
[29] = test system: Hepatocyte; test: Inhibition of lipid metabolism in mouse primary hepatocytes assessed as reduction in intracellular total cholesterol level at 10 uM incubated for 24 hrs; assay type: functional, cell-based
[30] = Half life in overnight fasted Sprague-Dawley rat at 5 mg/kg, po measured upto 24 hrs; assay type: ADME, organism-based; details: in vivo
[31] = test system: HepG2; test: Cytotoxicity against human HepG2 cells assessed as reduction in cell viability at 10 uM incubated for 72 to 96 hrs by Celltiter-Glo assay; assay type: toxicity, cell-based; details: hepg2, 10 µM, time 72-96 hrs
[32] = test system: HepG2; test: Inhibition of lipid metabolism in human HepG2 cells assessed as increase in p-AMPK/AMPK ratio at 10 uM incubated for 24 hrs by Western blot analysis; assay type: functional, cell-based
[33] = target: CYP2C8 (Homo sapiens, UniProt P10632); test: Inhibition of CYP2C8 in human liver microsomes at 10 uM incubated for 20 mins by LC-MS/MS analysis relative to control; assay type: ADME, Microsome
[34] = test system: HepG2; test: Induction of mitochondrial uncoupled respiration in human HepG2 cells assessed as increase in oxygen consumption rate at 10 uM measured after 24 hrs by Seahorse XFe96 flux analyzer; assay type: functional, cell-based

T2 sequence (Q12809 whole entry): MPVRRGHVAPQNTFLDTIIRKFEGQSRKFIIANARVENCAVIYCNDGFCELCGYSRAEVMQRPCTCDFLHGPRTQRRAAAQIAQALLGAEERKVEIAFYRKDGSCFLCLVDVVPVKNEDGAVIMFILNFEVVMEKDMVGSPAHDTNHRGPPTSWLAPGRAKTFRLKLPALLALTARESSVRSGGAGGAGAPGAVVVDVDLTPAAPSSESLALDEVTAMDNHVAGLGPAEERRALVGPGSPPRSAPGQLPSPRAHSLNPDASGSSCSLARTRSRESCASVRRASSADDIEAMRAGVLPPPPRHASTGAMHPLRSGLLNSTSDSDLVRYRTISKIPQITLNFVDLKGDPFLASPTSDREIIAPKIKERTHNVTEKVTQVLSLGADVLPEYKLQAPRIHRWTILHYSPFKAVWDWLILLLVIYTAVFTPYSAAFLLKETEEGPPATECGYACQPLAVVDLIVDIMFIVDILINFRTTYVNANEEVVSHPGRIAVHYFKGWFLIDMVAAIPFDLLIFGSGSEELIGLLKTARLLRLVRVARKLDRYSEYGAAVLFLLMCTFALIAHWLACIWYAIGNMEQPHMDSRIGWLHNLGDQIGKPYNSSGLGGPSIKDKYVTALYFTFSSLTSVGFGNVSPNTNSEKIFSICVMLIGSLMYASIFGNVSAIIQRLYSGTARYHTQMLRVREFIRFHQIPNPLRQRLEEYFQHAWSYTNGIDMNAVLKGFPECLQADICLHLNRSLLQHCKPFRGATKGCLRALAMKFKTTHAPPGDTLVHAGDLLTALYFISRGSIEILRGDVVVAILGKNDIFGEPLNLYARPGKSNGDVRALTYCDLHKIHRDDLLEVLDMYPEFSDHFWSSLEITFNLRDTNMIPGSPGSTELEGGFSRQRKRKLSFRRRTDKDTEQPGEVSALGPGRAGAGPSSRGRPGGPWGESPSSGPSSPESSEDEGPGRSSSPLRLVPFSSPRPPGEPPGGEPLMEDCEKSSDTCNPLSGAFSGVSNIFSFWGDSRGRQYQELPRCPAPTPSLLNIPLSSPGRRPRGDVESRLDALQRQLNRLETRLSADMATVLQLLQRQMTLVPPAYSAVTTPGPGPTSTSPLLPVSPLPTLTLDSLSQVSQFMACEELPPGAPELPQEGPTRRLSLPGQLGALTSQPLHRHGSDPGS
Chain of CYP2C8 (P10632 whole entry): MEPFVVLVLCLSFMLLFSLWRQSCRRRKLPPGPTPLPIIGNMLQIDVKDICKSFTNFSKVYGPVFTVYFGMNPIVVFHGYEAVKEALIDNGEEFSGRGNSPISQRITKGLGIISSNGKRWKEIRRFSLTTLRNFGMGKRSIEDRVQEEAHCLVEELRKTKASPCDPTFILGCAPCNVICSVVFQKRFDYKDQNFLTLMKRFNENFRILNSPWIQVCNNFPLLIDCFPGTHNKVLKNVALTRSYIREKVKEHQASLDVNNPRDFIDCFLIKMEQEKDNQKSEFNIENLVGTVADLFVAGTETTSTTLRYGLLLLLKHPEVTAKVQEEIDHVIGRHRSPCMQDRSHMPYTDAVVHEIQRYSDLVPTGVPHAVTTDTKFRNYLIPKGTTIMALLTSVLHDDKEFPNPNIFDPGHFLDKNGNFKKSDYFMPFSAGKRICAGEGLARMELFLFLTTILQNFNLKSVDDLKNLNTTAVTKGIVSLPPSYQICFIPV
Chain of CYP1A2 (P05177 whole entry): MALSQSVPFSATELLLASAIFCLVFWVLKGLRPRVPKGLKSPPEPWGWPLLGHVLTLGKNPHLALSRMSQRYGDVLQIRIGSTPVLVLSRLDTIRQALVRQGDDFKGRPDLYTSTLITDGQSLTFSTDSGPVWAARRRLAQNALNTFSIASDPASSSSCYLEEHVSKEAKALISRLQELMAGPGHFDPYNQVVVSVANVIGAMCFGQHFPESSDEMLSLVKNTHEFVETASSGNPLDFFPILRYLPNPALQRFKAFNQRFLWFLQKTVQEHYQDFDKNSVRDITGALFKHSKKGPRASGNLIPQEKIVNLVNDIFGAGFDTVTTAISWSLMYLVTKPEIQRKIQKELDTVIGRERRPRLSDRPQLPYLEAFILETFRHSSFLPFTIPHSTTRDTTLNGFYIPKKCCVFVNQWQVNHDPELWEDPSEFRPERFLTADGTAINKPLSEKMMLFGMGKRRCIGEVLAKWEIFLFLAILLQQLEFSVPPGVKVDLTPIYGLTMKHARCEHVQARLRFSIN
Chain of CYP2C9 (P11712 whole entry): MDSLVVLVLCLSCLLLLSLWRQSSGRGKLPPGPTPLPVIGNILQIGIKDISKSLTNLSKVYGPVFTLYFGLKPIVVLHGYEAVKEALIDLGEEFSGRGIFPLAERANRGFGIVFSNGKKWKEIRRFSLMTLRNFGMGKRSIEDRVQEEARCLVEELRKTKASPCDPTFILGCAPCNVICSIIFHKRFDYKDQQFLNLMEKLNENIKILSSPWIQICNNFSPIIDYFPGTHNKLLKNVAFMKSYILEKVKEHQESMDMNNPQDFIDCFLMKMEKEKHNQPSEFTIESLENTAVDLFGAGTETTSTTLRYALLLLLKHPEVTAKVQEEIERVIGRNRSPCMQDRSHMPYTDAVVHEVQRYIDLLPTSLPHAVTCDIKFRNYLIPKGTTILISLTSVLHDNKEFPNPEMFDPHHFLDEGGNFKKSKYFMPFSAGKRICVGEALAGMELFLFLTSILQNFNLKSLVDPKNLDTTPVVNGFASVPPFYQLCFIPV
Chain of Egl nine homolog 1 (Q9GZT9 2-426 limits assumed): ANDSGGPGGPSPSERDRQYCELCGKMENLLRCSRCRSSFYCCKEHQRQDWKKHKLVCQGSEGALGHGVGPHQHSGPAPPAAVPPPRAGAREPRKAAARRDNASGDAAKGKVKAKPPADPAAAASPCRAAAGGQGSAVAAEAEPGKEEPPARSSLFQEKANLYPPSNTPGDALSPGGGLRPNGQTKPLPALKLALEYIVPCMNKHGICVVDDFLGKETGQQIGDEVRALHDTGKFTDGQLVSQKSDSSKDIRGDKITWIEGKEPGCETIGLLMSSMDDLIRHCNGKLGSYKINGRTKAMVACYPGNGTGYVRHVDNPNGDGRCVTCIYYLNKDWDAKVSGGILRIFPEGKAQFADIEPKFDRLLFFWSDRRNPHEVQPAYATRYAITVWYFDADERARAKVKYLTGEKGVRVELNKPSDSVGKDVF

COc1cc(F)cc(C(=O)c2cc(C)c(Oc3ccc4c(O)c(C(=O)NCC(=O)O)nc(OC)c4c3)c(C)c2)c1
clearance [1]: 7.83 mL/min/kg | EC50 [2]: 21 nM | inhibition [3]: Active | inhibition [4]: Active | inhibition [5]: Active | Activity [6]: Non-Toxic | CLint scaled at 1 µM [7]: < 45.5 mL/min/kg | inhibition at 10 min, 10 µM [8]: 1.67% | Vd [9]: 0.72 L/kg | half-life at 1 µM [10]: > 2 h | Cmax [11]: 1450 ng/mL | half-life at 1 µM [12]: > 2 h | bioavailability [13]: 57.3% | AUC(0-inf) [14]: 6830 ng·h/mL | inhibition at 10 µM [15]: 9.13% | inhibition at 1 µM [16]: 4.19% | inhibition [17]: 4.8% | inhibition [18]: Active | half-life [19]: 1.8 h | EC50 [20]: 1340 nM | Activity [21]: Non-Toxic | Activity [22]: Non-Toxic | Tmax [23]: 4.8 min | inhibition at 10 min, 10 µM [24]: 18.4% | inhibition [25]: Active | inhibition [26]: Active | Activity [27]: Active | CLint scaled at 1 µM [28]: < 14.5 mL/min/kg | inhibition [29]: Active | half-life [30]: 2.58 h | Activity [31]: Non-Toxic | inhibition [32]: Active | inhibition at 20 min, 10 µM [33]: 26.3% | Activity [34]: Active
